What all share (assay type): in vivo, mouse
The test system of one assay is IL-4. Put plainly: Serum IL-4 ELISA, food allergy mice. To be noted: OVA food allergy; serum day 28; oral 10 mg/kg (dexamethasone 2 mg/kg); control 210, vehicle 1154. As for the experimental part:
A 0.2 mL dose of 10 μg ovalbumin (OVA) and 1 mg Alum mixture was administered to 6-week-old female Balb/c mice (Japan SLC Inc.) (day 0 of the example). Alum was used as an adjuvant. Seven days later, the Balb/c mice were immunized again with a 0.2 mL injection of the above mixture. Starting on day 14, mice were orally treated with 10 mg/kg of norathyriol, 10 mg/kg of mangiferin 8a, 10 mg/kg of tofacitinib (JAK inhibitor), 2 mg/kg of dexamethasone (steroid) and 10 mg/kg of olopatadine (antihistamine) daily for 14 consecutive days. Starting on day 14, 10 mg OVA was administered orally every other day […], and the frequency of diarrhea was measured after the final administration on day 28. Note that tofacitinib, dexamethasone, and olopatadine are currently in clinical use in food allergy and were used as control drugs in this example.
Serum was collected from day 28 mice in Examples 21, and IL-4 production was measured by enzyme-linked immunosorbent assay (ELISA). This assay was performed using a mouse IL-4 ELISA kit (R&D).
For orientation: ELISA stands for enzyme-linked immunosorbent assay.

The subject of assay [1] is IL-17. Put plainly: Serum IL-17 ELISA, cedar pollinosis mice. To be noted: serum day 28, oral 10 mg/kg (dexamethasone 2 mg/kg), control 18, vehicle 397. As for the experimental part:
(§1) A 0.2 mL dose of 100 μg cedar pollen and 1 mg Alum mixture was administered to 6-week-old female Balb/c mice (Japan SLC Inc.) (day 0 of the example). Alum was used as an adjuvant. Seven days later and 14 days later, the Balb/c mice were immunized again with 0.2 mL injections of the above mixture. Starting on day 20, mice were orally treated with 10 mg/kg of norathyriol, 10 mg/kg of mangiferin 8a, 10 mg/kg of tofacitinib (JAK inhibitor), 2 mg/kg of dexamethasone (steroid) and 10 mg/kg of olopatadine (antihistamine) daily for 8 consecutive days. Starting on day 21, 500 μg cedar pollen was administered intranasally, and nose-scratching behavior was measured on day 27. Note that tofacitinib, dexamethasone, and olopatadine are currently in clinical use in cedar pollinosis and were used as control drugs in this example.
Serum was collected from day 28 mice in Examples 28 and 29, and IL-17 production was measured by enzyme-linked immunosorbent assay (ELISA). This assay was performed using a mouse IL-17 ELISA kit (R&D).

Another assay concerns IgE antibody. Kind of assay: Serum IgE antibody ELISA, cedar pollinosis mice. To be noted: serum day 28, oral 10 mg/kg (dexamethasone 2 mg/kg), control 71, vehicle 207. As for the experimental part:
as §1
Serum was collected from day 28 mice in Examples 28 and 29, and IgE antibody production was measured by enzyme-linked immunosorbent assay (ELISA). This assay was performed using a mouse IgE antibody ELISA kit (R&D).

In assay [2] the test system is IL-17. Put plainly: Serum IL-17 ELISA, allergic rhinitis mice. To be noted: OVA allergic rhinitis; serum day 28; oral 10 mg/kg (dexamethasone 2 mg/kg); control 204, vehicle 945. As for the experimental part: (§2) A 0.2 mL dose of 50 μg ovalbumin (OVA) and 2 mg Alum mixture was administered to 6-week-old female Balb/c mice (Japan SLC Inc.) (day 0 of the example). Alum was used as an adjuvant. Seven days later and 14 days later, the Balb/c mice were immunized again with 0.2 mL injections of the above mixture. Starting on day 20, mice were orally treated with 10 mg/kg of norathyriol, 10 mg/kg of mangiferin 8a, 10 mg/kg of tofacitinib (JAK inhibitor), 2 mg/kg of dexamethasone (steroid) and 10 mg/kg of olopatadine (antihistamine) daily for 8 consecutive days. Starting on day 21, 400 μg OVA was administered intranasally, and nose-scratching behavior was measured on day 27. Note that tofacitinib, dexamethasone, and olopatadine are currently in clinical use in allergic rhinitis and were used as control drugs in this example.
Serum was collected from day 28 mice in Examples 6 and 7, and IL-17 production was measured by enzyme-linked immunosorbent assay (ELISA). This assay was performed using a mouse IL-17 ELISA kit (R&D).

A further assay concerns IL-5. Kind of assay: Serum IL-5 ELISA, bronchial asthma mice. To be noted: OVA bronchial asthma; serum day 28; oral 10 mg/kg (dexamethasone 2 mg/kg); control 80, vehicle 992. As for the experimental part: as §2, with “cough” for “nose-scratching behavior”
Serum was collected from day 28 mice in Examples 14, and IL-5 production was measured by enzyme-linked immunosorbent assay (ELISA). This assay was performed using a mouse IL-5 ELISA kit (R&D).

The subject of assay [3] is Balb/c mice with ovalbumin-induced allergic rhinitis. Kind of assay: Sneezing, ovalbumin-induced allergic rhinitis mice. To be noted: OVA allergic rhinitis; oral daily 8 days from day 20, 10 mg/kg (dexamethasone 2 mg/kg); measured day 27; vs vehicle group. As for the experimental part:
as §2, with “sneezing” for “nose-scratching behavior”
The group that was just immunized with OVA is called the subject group, the one that received norathyriol is called the norathyriol group, the one that received mangiferin 8a is called the mangiferin 8a group, the one that received tofacitinib is called the tofacitinib group, the one that received dexamethasone is called the dexamethasone group, and the one that received olopatadine is called the olopatadine group. Each group consisted of five animals.

Turning to `C[C@@H]1C[C@H]2[C@@H]3CCC4=CC(=O)C=C[C@]4(C)[C@@]3(F)[C@@H](O)C[C@]2(C)[C@@]1(O)C(=O)CO` [dexamethasone], in the assay on IL-4, the “amount of IL-4” value was found to be 415 pg/mL. Moreover, the “amount of IL-17” value in the assay on IL-17 [1] is recorded as 49 pg/mL; with IL-17 [2], 227 pg/mL. Besides, in the assay on IgE antibody, the “amount of IgE antibody” value amounted to 154 ng/mL. Further, in the assay on IL-5, the “amount of IL-5” value amounted to 286 pg/mL.

Turning to `O=c1c2cc(O)c(O)cc2oc2cc(O)cc(O)c12` [norathyriol, 1,3,6,7-tetrahydroxyxanthone], in the assay with IL-4, the “amount of IL-4” value was found to be 694 pg/mL. The entries for the “amount of IL-17” value with IL-17 [1] and in the assay on IL-17 [2] were 195 pg/mL and 583 pg/mL, respectively. Besides, the “amount of IgE antibody” value in the assay with IgE antibody is recorded as 156 ng/mL. Also, the number of sneezing entry in assay [3] is given as “significantly decreased the number of sneezing”. Moreover, the “amount of IL-5” value in the assay on IL-5 was determined as 601 pg/mL.

For the compound `CN(C)CC/C=C1/c2ccccc2COc2ccc(CC(=O)O)cc21` [olopatadine], in the assay on IL-4, the “amount of IL-4” value is recorded as 1054 pg/mL. The “amount of IL-17” value in the assay with IL-17 [1] amounted to 172 pg/mL; in the assay on IL-17 [2] it was 839 pg/mL. The “amount of IgE antibody” value in the assay on IgE antibody turned out to be 218 ng/mL. Further, in assay [3], the number of sneezing result is “significantly decreased the number of sneezing”. Further, the “amount of IL-5” value in the assay with IL-5 was 866 pg/mL.

`C[C@@H]1CCN(C(=O)CC#N)C[C@@H]1N(C)c1ncnc2[nH]ccc12` [tofacitinib]: the “amount of IL-4” value in the assay on IL-4 stood at 1015 pg/mL. For the same compound, the “amount of IL-17” value in the assay with IL-17 [1] is reported as 244 pg/mL; with IL-17 [2] it was 892 pg/mL. In the assay with IgE antibody, the “amount of IgE antibody” value is 185 ng/mL. Moreover, the number of sneezing entry in assay [3] was “significantly decreased the number of sneezing”. In the assay with IL-5, the “amount of IL-5” value amounted to 833 pg/mL.

The record behind these values is patent US20260007634A1, “PHARMACEUTICAL COMPOSITIONS FOR THE TREATMENT OF ALLERGIC DISEASES” (KINKI UNIVERSITY, priority 2022, published 2026).
